The results in this text go back to patent US20170037078A1, “2' -DIS[…] FOR TREATMENT OF THE FL[…] OF VIRUSES AND CANCER” (Cocrystal Pharma, Inc., priority 2014, published 2017).

Assay [1] addresses Human DNA Polymerase Pol Beta (Homo sapiens, UniProt P06746). The experiment in a line: Inhibition of Human DNA Polymerase Beta. It is filed as biochemical.
The target in assay [2] is T1, Human DNA Polymerase Pol Gamma (Homo sapiens, UniProt P54098).
T1 construct: made in house
T1 sequence (P54098 26-1239 limits assumed): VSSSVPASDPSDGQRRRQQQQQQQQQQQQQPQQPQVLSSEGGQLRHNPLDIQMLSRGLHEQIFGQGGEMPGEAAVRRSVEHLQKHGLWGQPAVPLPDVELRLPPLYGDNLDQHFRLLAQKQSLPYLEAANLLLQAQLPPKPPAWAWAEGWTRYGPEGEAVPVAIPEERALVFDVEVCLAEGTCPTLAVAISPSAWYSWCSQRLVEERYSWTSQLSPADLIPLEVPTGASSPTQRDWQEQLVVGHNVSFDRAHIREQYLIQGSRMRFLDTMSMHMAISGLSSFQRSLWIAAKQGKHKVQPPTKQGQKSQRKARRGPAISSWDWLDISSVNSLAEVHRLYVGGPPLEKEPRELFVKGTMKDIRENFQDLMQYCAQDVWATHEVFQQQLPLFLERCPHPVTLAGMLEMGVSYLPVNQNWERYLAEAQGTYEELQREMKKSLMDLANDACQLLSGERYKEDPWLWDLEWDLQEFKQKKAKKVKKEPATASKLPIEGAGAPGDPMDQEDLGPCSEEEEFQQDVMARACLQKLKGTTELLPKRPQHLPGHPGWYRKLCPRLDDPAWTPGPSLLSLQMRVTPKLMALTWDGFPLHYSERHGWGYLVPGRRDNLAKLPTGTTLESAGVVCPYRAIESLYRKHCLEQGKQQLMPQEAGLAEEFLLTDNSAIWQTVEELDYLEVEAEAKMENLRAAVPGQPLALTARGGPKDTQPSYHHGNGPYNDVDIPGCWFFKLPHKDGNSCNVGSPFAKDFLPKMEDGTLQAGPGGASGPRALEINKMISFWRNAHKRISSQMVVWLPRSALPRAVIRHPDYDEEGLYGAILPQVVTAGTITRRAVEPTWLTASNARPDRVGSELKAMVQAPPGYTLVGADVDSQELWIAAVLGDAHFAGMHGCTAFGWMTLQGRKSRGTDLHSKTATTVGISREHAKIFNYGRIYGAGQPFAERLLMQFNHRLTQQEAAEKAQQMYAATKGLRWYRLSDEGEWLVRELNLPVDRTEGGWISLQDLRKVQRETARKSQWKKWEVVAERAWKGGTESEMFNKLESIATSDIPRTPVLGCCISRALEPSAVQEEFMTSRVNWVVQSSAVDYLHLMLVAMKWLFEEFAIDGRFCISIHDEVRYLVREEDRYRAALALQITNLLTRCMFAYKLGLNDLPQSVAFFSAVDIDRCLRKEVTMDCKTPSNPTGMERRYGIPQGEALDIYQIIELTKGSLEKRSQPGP
T1 sequence (Q9UHN1 26-485 partner limits assumed): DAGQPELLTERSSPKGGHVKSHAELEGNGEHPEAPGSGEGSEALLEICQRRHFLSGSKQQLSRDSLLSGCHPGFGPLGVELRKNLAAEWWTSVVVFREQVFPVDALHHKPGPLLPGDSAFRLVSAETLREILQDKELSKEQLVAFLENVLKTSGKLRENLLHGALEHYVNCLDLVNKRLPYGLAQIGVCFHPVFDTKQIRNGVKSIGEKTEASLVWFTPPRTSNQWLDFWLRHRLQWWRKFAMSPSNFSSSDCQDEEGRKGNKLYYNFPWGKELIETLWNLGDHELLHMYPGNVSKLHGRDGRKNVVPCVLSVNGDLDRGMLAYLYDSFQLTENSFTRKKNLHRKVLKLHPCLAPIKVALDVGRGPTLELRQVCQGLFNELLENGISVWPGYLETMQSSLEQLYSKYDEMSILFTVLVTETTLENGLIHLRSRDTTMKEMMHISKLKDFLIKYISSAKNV
The assay can be described thus: Inhibition of Human DNA Polymerase Gamma. It is filed as biochemical.

pIC50: −log10 of the molar value.

In general, pIC50 refers to the IC50 on a negative log10 scale, so that one unit is a factor of ten. A higher pIC50 goes with a low IC50. As to `Cc1cn([C@H]2CC[C@@H](COP(=O)(O)OP(=O)(O)OP(=O)(O)O)O2)c(=O)[nH]c1=O` [ddTTP], the pIC50 was 4.74 in assay [1] and 4.37 in assay [2].
